Data from patent US20240124409A1, “GUAIANOLIDE SESQUITERPENE LACTONE DERIVATIVES AND PHARMACEUTICAL USE THEREOF” (NANJING UNIVERSITY OF CHINESE MEDICINE, priority 2021, published 2024).
Marks after values point to notes of the source that are not given here.

Columns and labels:
[1] = Stability in artificial gastric juice environment (HPLC); conditions: 37° C.
Experimental: The samples were dissolved in 500 μL of chromatographic methanol, into which were added 1500 μL of artificial gastric juice, mixed well and then dissolved completely by ultrasound. 50 μL of the above solutions were aspirated precisely, diluted by adding 200 μL of chromatographic methanol, filtered and analyzed by HPLC, wherein the HPLC analysis conditions were mobile phase: 65% methanol -35% water, flow rate: 0.8 mL/min, and column temperature: 25° C., and the initial peak areas were recorded. The above solutions were placed on a constant temperature water bath at 37° C., sampled at 8 h, 16 h and 24 h respectively, and analyzed by HPLC. By calculating the peak areas respectively, the stability data of the corresponding samples in artificial gastric juice environment at 8 h, 16 h and 24 h can be obtained.

Hepa1-6 cells = assay: Hepa1-6 subcutaneous mouse xenograft model; assay type: in vivo, C57BL/6 mice; conditions: 2 weeks
Experimental: (§1) Hepa1-6 cells were cultured and amplified in vitro. Appropriate amount of the cells in logarithmic growth phase were resuspended in a suspension of a serum-free DMEM medium and Matrigel (1:1) to prepare a cell suspension in 2.5×10^6/100 μL under sterile conditions. 100 μL of the cell suspension was subcutaneously inoculated into the armpits of the front left limbs of C57BL/6 mice with a syringe. When the tumor volume grew to 100-200 mm^3, animals with moderate tumor size were randomly divided into groups, with 6 animals in each group. […] The mice were administered intragastrically every day for 2 weeks. During the administration, the weights and tumor diameters of the mice were measured every day. After the experiment, the mice were sacrificed by cervical dislocation, and the tumors were taken and weighed. The formula for calculating a tumor volume (TV) is: TV=½×a×b^2, where a represents the long diameter of a tumor; b represents the short diameter of a tumor.

MDSCs and T cells = assay: H22 xenograft model, flow cytometry of MDSCs and T cells in tumor and spleen; assay type: in vivo, BALB/c mice
Experimental: as §1, with “H22” for “Hepa1-6”, “RPMI 1640” for “DMEM”, “3×105/100” for “2.5×10^6/100”, “BALB/c” for “C57BL/6”
The tumor-bearing mice were sacrificed by the cervical dislocation method, placed in a beaker containing 75% alcohol, and the tumors of the mice were peeled off. The tumors were first soaked in a sterile petri dish containing RPMI 1640. After all the tumors were peeled off, fingernail sized tumor was cut off and transferred to a 1.5 mL EP tube. The tumors were cut into small pieces, and transferred into a 15 mL centrifuge tube containing 3-5 mL of digestive enzymes (Collagenase IV 1 mg/mL, Hyaluronidase 1 mg/mL, and DNase I 20 U/mL), and digested in a shaker at 200 rpm and 37° C. for 1 h. After digestion, the mixture was allowed to pass through a 200-mesh screen to obtain the suspension of the tumor cells. The resulting tumor suspension was centrifuged at 1600 rpm for 5 min. The supernatant was aspirated away. 1 mL of 1×PBS was added into each tube to resuspend the cells. The cell suspension was transferred into a 1.5 mL EP tube, and centrifuged at 1600 rpm for 5 min. The supernatant was removed. 100 μL of 1×PBS was used in each tube to resuspend the cells respectively. Then 1 μL of a viability dye was added. The mixture was incubated at room temperature in the dark for 15 min after being mixed well. At the same time, the spleen was taken out with a tweezer, placed into a sterile petri dish containing 5 mL of the RPMI 1640 medium, and positioned on a 200-mesh cell screen. The spleen was gently ground with the needle core of a 10 mL syringe. A small amount of the RPMI 1640 medium was aspirated to rinse the cell screen. The spleen cell suspension was rinsed into a 15 mL centrifuge tube, and centrifuged at 1600 rpm for 5 min to collect cells. The cells were washed once with 1×PBS. 3 mL of an erythrocyte lysate (diluted with ddH2O) was added to each tube to lyse for 5 min. After lysing, 10 mL of 1×PBS was added to each tube to stop lysing. The mixture was centrifuged at 1600 rpm for 5 min. 1 mL of 1×PBS was added to each 15 mL centrifuge tube. The mixture was transferred to a 1.5 mL EP tube, and centrifuged at 1600 rpm for 5 min. 1 mL of 1×PBS was added to each tube of the stained tumor cells and lysed spleen cells respectively to wash once. The mixture was centrifuged at 1600 rpm for 5 min, and the supernatant was removed. 100 μL of 1×PBS was used to resuspend the tumor cells and spleen cells respectively. 1 μL of the FcX™ antibody was then added to each tube. The mixture was incubated at room temperature in the dark for 10 min. After the incubation, 1 μL of each of the CD45, CD11b and Gr1 antibodies was added to each tube sequentially. The mixture was incubated at 4° C. in the dark for 30 min, and washed once with 1×PBS after the incubation. The supernatant was discarded. 300 μL of 1×PBS was used to resuspend the cells. The mixture was filtered through a filter membrane into a flow tube, and detected on a machine.

H22 cells = assay: H22 subcutaneous mouse xenograft model, tumor growth; assay type: in vivo, BALB/c mice; conditions: 2 weeks
Experimental: as §1, with “H22” for “Hepa1-6”, “RPMI 1640” for “DMEM”, “3×105/100” for “2.5×10^6/100”, “BALB/c” for “C57BL/6”

[2] = Conversion of Compound 23 to Compound 1 in HEPES7.4 solution; assay type: physicochemical; conditions: HEPES buffer solution, 37° C.
Experimental: Formulation of HEPES 7.4 solution: 1.6 g of NaCl, 0.074 g of KCl, 0.027 g of Na2HPO4, 0.2 g of glucose and 1 g of a 4-hydroxyethyl piperazine ethanesulfonic acid (HEPES) solution were placed in 90 mL of distilled water, the pH of which was adjusted to 7.4 with 0.5 M NaOH, and then the volume was adjusted to 100 mL with distilled water.
250 μL of the mouse serum or the HEPES7.4 solution was added into the sample, incubated at 37° C., and sampled at different time points, respectively. 20 μL of samples were taken into EP tubes, into which was added 60 μL of methanol, vortexed to mix well, and centrifuged at 12000 rpm at 4° C. for 10 min. The supernatants were taken at 1 h, 2 h, 4 h, 8 h and 12 h, respectively. The samples were analyzed by HPLC with an injection volume of 10 μL, and the corresponding peak areas were recorded. The chromatographic conditions were as follows: the chromatographic column was Hanbang C18 (4.6×250 mm, 5 um); the mobile phase was acetonitrile: […] of ammonium formate solution =60: 40; the flow rate was 1.0 mL/min; the detection wavelength was 210 nm; and the column temperature was 30° C.

C=C1C(=O)O[C@@H]2[C@@H]3[C@]4(CC[C@@]3(C)O)C[C@]4(C)CC[C@@H]12 [Compound 1]
Non-degradation percentage at 8 h [1]: 99.08% | Non-degradation percentage at 16 h [1]: 98.76% | Non-degradation percentage at 24 h [1]: 98.16%

C=C1C(=O)O[C@@H]2[C@H]3C(C)=CC[C@@]34O[C@@]4(C)CC[C@@H]12 [arglabin, reference compound]
Tumor growth inhibition (Hepa1-6 cells; 10 mg/kg/d i.g.): 95.86%*** | Tumor weight (Hepa1-6 cells; 10 mg/kg/d i.g.): 0.04 g | Non-degradation percentage at 8 h [1]: 50.14% | Non-degradation percentage at 16 h [1]: 48.70% | Non-degradation percentage at 24 h [1]: 43.40% | MDSCs in Spleen (MDSCs and T cells; 10 mg/kg/d): 27.89% | MDSCs in tumor (MDSCs and T cells; 10 mg/kg/d): 27.0% | T Cells in Spleen (MDSCs and T cells; 10 mg/kg/d): 27.02% | T Cells in tumor (MDSCs and T cells; 10 mg/kg/d): 17.72% | Tumor growth inhibition (H22 cells; 10 mg/kg/d i.g.): 39.43% | Tumor weight (H22 cells; 10 mg/kg/d i.g.): 5.18 g

CN(C)C[C@@H]1C(=O)O[C@H]2[C@H]1CC[C@@]1(C)C[C@]13CC[C@@](C)(O)[C@H]23 [Compound 23]
content of Compound 1 (converted from Compound 23) ([2]; 1 h): 5.36% | content of Compound 1 (converted from Compound 23) ([2]; 2 h): 11.05% | content of Compound 1 (converted from Compound 23) ([2]; 4 h): 19.64% | content of Compound 1 (converted from Compound 23) ([2]; 8 h): 39.29% | content of Compound 1 (converted from Compound 23) ([2]; 12 h): 55.36% | Tumor growth inhibition (Hepa1-6 cells; 8.43 mg/kg/d i.g.): 96.78%*** | Tumor weight (Hepa1-6 cells; 8.43 mg/kg/d i.g.): 0.03 g | MDSCs in Spleen (MDSCs and T cells; 8.43 mg/kg/d): 23.10% | MDSCs in tumor (MDSCs and T cells; 8.43 mg/kg/d): 7.86% | T Cells in Spleen (MDSCs and T cells; 8.43 mg/kg/d): 37.19% | T Cells in tumor (MDSCs and T cells; 8.43 mg/kg/d): 29.44% | Tumor growth inhibition (H22 cells; 8.43 mg/kg/d i.g.): 42.92% | Tumor weight (H22 cells; 8.43 mg/kg/d i.g.): 4.88 g
